What is called TGI is the concentration giving total growth inhibition. Higher therefore signals lower sensitivity of the cells. In general, GI50 refers to the concentration at which growth is held to half of that of the control. A high value points to less potent growth inhibition.

Common to all, as to assay type: functional
The test system of test [1] is HEL. Briefly: Tested for cytotoxic activity in human embryonic lung fibroblast (HEL).
Test [2] has as its system HEL. In words: Tested for antiviral activity against human cytomegalovirus (AD-169) in human embryonic lung fibroblasts.
For test [3], the system named is HL-60. In words: Tested for the inhibitory concentration against cell growth of HL60 acute myeloid leukemia using MTT assay. Particulars: Homo sapiens. (Formazan colour is commonly taken as a measure of viable cells.)
For test [4], the system named is HuT78. In words: Tested for the inhibitory concentration against cell growth of HuT78 T lymphoma using MTT assay. The conditions noted are these: Homo sapiens.
For test [5], the system named is MOLT-4. In words: Tested for the inhibitory concentration against cell growth of human leukemic cell line MOLT-4.
In test [6] the test system is CCRF-CEM. Briefly: Tested for the inhibitory concentration against cell growth of Tcell leukemic cell line CCRF-CEM using MTT assay. Particulars: Homo sapiens.
In test [7] the test system is MOLT-4. Briefly: Tested for the inhibitory concentration against cell growth of Tcell leukemic cell line MOLT-4 using MTT assay. The conditions noted are these: Homo sapiens.
Test [8] relates to K562. In words: Tested for the inhibitory concentration against cell growth of human leukemic cell line K562.
The test system of test [9] is CCRF-CEM. Briefly: Tested for the concentration required to reduce the viability of leukemia cells by 50% against cell growth of T cell leukemia cell line CCRF-CEM using MTT assay. Particulars: Homo sapiens, read-out: LC50 (the source's name).
Test [10] has as its system HuT78. Briefly: Tested for the concentration required to reduce the viability of leukemia cells by 50% against cell growth of HuT78 T lymphoma using MTT assay. The conditions noted are these: Homo sapiens, read-out: LC50 (the source's name).
For test [11], the system named is HL-60. Briefly: Tested for the inhibitory concentration against cell growth of human leukemic cell line HL60.
Test [12] concerns HL-60. In words: Tested for the concentration required to reduce the viability of leukemia cells by 50% against cell growth of HL60 acute myeloid leukemia using MTT assay. Particulars: Homo sapiens, read-out: LC50 (the source's name).
The subject of test [13] is MOLT-4. In words: Tested for the concentration required to reduce the viability of leukemia cells by 50% against cell growth of T cell leukemia cell line MOLT-4 using MTT assay. Particulars: Homo sapiens, read-out: LC50 (the source's name).
Test [14] relates to K562. In words: Tested for the concentration required to reduce the viability of leukemia cells by 50% against cell growth of K562 chronic myeloid leukemia using MTT assay. Particulars: Homo sapiens, read-out: LC50 (the source's name).
In test [15] the test system is RPMI-8226. In words: Tested for the concentration required to reduce the viability of leukemia cells by 50% against cell growth of RPMI8226 multiple myeloma using MTT assay. The conditions noted are these: Homo sapiens, read-out: LC50 (the source's name).
Test [16] concerns CCRF-CEM. Briefly: Tested for the inhibitory concentration against cell growth of human leukemic cell line CCRF-CEM.
Test [17] relates to RPMI-8226. Briefly: Tested for the inhibitory concentration against cell growth of human leukemic cell line RPMI8226.
For test [18], the system named is HuT78. In words: Tested for the inhibitory concentration against cell growth of human leukemic cell line HuT78.
For test [19], the system named is K562. In words: Tested for the inhibitory concentration against cell growth of K562 chronic myeloid leukemia using MTT assay. The conditions noted are these: Homo sapiens.
For test [20], the system named is RPMI-8226. Briefly: Tested for the inhibitory concentration against cell growth of […] multiple myeloma using MTT assay. Particulars: Homo sapiens.

In turn, `Nc1ccn(C[C@@H](CO)OCP(=O)(O)O)c(=O)n1.O.O` [CIDOFOVIR] registered an MCC in [1] of over 50 µg/mL. Also, in test [2], the MIC is 0.27 µg/mL.

Take `CC[C@]1(O)C[C@@H]2CN(CCc3c([nH]c4ccccc34)[C@@](C(=O)OC)(c3cc4c(cc3OC)N(C)[C@H]3[C@@](O)(C(=O)OC)[C@H](OC(C)=O)[C@]5(CC)C=CCN6CC[C@]43[C@@H]65)C2)C1` [VINBLASTINE]: the TGI was 250 pM in test [3]; under 250 pM in test [4]; 1910 pM in [6]; under 250 pM in test [7]; under 250 pM in [19]; 800 pM in test [20]. Besides, the GI50 was under 250 pM in test [5]; under 250 pM in test [8]; 36 pM in [11]; 20 pM in test [16]; 3 pM in [17]; under 250 pM in test [18]. The CC50 in [9] was 5730 pM; in test [10] it was 250 pM; in [12] it was 1510 pM; in test [13], under 250 pM; in test [14] it was under 250 pM; in [15], 3280 pM.

The record behind these values is ChEMBL document CHEMBL1135216, “New 2-(1-adamantylcarbonyl)pyridine and 1-acetyladamantane thiosemicarbazones-thiocarbonohydrazones: cell growth inhibitory, antiviral and antimicrobial activity evaluation” (Bioorg Med Chem Lett, 2002).
